Tested on: rat cortex cultures (cortical neurons)
Experiment: Neuronal survival (MAP-2 positive cell counts) in rat cortex cultures with PDC-induced chronic cortical degeneration under controlled gas atmosphere
Type: cell-based
Set-up: key to Neuronal survival: +++=reference level; ++: a favorable response, synonymous with a decrease in neuronal cell death in the presence of the treatments of interest; +: a favorable response, synonymous with a decrease in neuronal cell death in the presence of the treatments of interest; an unfavorable response is represented by a “−” sign, synonymous with an increase in neuronal death
Method: Cultures are prepared from rat embryo cortex taken from Wistar rates, on day 15.5 of gestation. The method for obtaining cortex cultures comprises the preparation of a homogeneous cell suspension by mechanical, i.e., non-enzymatic, dissociation of embryonic tissue using Leibovitz's L15 medium (Sigma Aldrich). Aliquots of this suspension are added to Nunc 48-well plates coated beforehand with a thin layer of polyethylenimine (1 mg/ml, borate buffer, pH 8.3) to allow neuronal cells to adhere (see Toulorge et al., Faseb J, 2011). The seeding density is between about 20,000 and 30,000 cells/cm^2. The cortex cultures are maintained in Neurobasal culture medium containing an […] B27 cocktail, N2 supplement, glutamine (2 mM) and a penicillin/streptomycin cocktail (see Nafia et al., J Neurochem, 2008). The medium and the supplement are available from Life Technologies. Six hours after placing in culture, 0.5 μM of the antimitotic cytarabine (Sigma Aldrich) is added to limit the proliferation of astrocytes. Until the moment when the effects of the gases of interest are evaluated, the cultures are placed in a conventional enclosure thermostated at 37° C., wherein CO2 is maintained at 5% by volume and the atmosphere is saturated with water. The culture medium is not changed during the culture period. The degenerative process is triggered by applying a glutamate reuptake system blocker, PDC (Zuiderwijk et al., Europ J Pharmacol, 1994). The NMDA receptor blocker, memantine, is added to the cultures before the application of PDC. These two products (PDC and memantine) are from RD Systems. Once the pharmacological treatments are carried out, the multi-well plates containing the cells in culture and the plate used for humidification of the internal compartment of the chamber are placed on a metal base that receives the Plexiglas incubation chamber. The two parts (base and Plexiglas chamber) are screwed together in a joined manner. A gas mixture of interest comprising (% by volume): 20% O2, 5% CO2 and 75% of the gas tested is then injected into the incubation chamber, with inlet and outlet valves open, while controlling the outlet flow by means of a flowmeter. The gases tested are nitrogen and xenon. The reference outlet flow, set for air at 10 liters/minute, is corrected as a function of the density of the mixture used. When the CO2 measurement at the outlet reaches 5%, the injection of the gas mixture is stopped and the chamber is completely sealed by closing the inlet and outlet valves. The exposure chamber is then placed in a 37° C. enclosure throughout the experimental protocol. After breaking the seal by opening the inlet and outlet valves and unscrewing the chamber from its base, the cultures are fixed with 4% formaldehyde in PBS for 12 minutes and then incubated at 4° C. with a monoclonal anti-MAP-2 antibody (dilution 1:200; clone AP-20; Sigma-Aldrich) for 3 days. This antibody is detected with an anti-mouse secondary antibody coupled with cyanine-3 (Sigma Aldrich; dilution 1:1000 in PBS). Image capturing is carried out with the 10× objective using a Nikon TE-300 inverted microscope equipped with an ORCA-ER cooled digital camera and HCl image capturing software (Hamamatsu). […] The cultures are then collected for fixing and analysis. Neuronal survival is quantified in the various experimental conditions tested by counting the number of cell bodies immunopositive for the pan-neuronal marker MAP-2.

O=C(O)[C@H]1CN[C@H](C(=O)O)C1 (relative stereo) [PDC, L-trans-pyrrolidine-2,4-dicarboxylic acid]
Neuronal survival (PDC 30 μM, 75% N2, days 12-16): −
loss of cortical neuronal cells (PDC 30 μM, 75% nitrogen): about 85%
survival rate (PDC 30 μM, 75% nitrogen, % of cultures not treated with PDC under 75% nitrogen): 15.9%

[Xe] [Xe, xenon]
Neuronal survival (PDC 30 μM, 75% Xe, days 12-16): ++
effect on neuronal survival versus nitrogen-alone condition (ANOVA, Student-Newman-Keuls, p<0.05) (PDC 30 μM, 75% xenon without memantine, n=6): significantly superior to that of the nitrogen-alone condition
Neuronal survival (no PDC, 20% O2 + 5% CO2 + 75% Xe, days 12-16, day-16 cortex cultures): +++

CC12CC3CC(C)(C1)CC(N)(C3)C2 [memantine]
effect on neuronal survival (PDC 30 μM + memantine 0.1 μM alone, 75% nitrogen): no significant effect
Neuronal survival (PDC 30 μM + memantine 0.1 μM, 75% N2, days 12-16): −
survival rate (PDC 30 μM + memantine 1 μM by itself, 75% nitrogen): 54.6%
Neuronal survival (PDC 30 μM + memantine 1 μM, 75% N2, days 12-16): ++
neuronal cells saved (PDC 30 μM + memantine 10 μM itself, 75% nitrogen): more than 90%
Neuronal survival (PDC 30 μM + memantine 10 μM, 75% N2, days 12-16): +++

— patent US20160151412A1, “COMBINATION OF XENON WITH AN NMDA RECEPTOR ANTAGONIST FOR FIGHTING A NEURODEGENERATIVE DISEASE” (L'AIR LIQUIDE, SOCIETE ANONYME POUR L'ETUDE ET …, priority 2013, published 2016)
